Results on four molecules are retold here after patent US10555926B2, “Use of cabazitaxel in the treatment of prostate cancer” (Erasmus University Medical Center Rotterdam, priority 2015, dated 2020).

Like-named read-outs stand apart in the source and are kept apart here.

Experiment [1] deals with mCRPC patients. The note with it: cited from earlier work.
Experiment [2] deals with mCRPC patients. The experiment can be described thus: Overall survival under cabazitaxel treatment.
Protocol: Primary endpoint of this study was the CTC response rate (RR) to cabazitaxel, defined as a decrease from ≥10 CTC to <5/7.5 ml of blood after two treatment cycles.
Applied statistical tests were the X^2 test for differences between categorical variables, the Student's t test for normally distributed and the Mann-Whitney U test for other continuous variables. Correlations were tested by Pearson or the non-parametric Spearman's test, depending on the distribution. Survival was visualized using Kaplan Meier plots and differences were calculated through Log-rank testing. All statistical tests were two-sided. A P-value <0.05 was considered statistically significant.
For experiment [3], the system named is mCRPC patients. The experiment can be described thus: PSA response to cabazitaxel (after 12 weeks and best response at end of treatment). The class given is in vivo, human. The note with it: for Best PSA response: No (number of patients) / Best PSA response: ≥50% (number of patients) / Best PSA response: ≥30% (number of patients): end of treatment; for Best PSA response: ≥30% (number of patients) / PSA response after 12 weeks: ≥30% (number of patients): includes patients with ≥50% PSA response. From the text: Sequential PSA levels during cabazitaxel for evaluation of PSA response after 12 weeks and maximal PSA response at the end of treatment were available from […]. Five (17%) and three patients (10%) achieved a ≥30% and ≥50% PSA response, respectively, after 12 weeks of treatment. At the end of treatment, the best PSA response was ≥30% in seven patients (24%) and ≥50% in three patients (10%). The differences between 30% and 50% PSA-RR after 12 weeks and at the end of treatment between patients with and without AR-V7 in CTCs were not statistically significant (Table 4, FIG. 2). Prior abiraterone acetate treatment had no influence on CTC-RR and PSA-RR during cabazitaxel treatment.

For another experiment, the system named is CTCs of mCRPC patients. The experiment can be described thus: CTC response to cabazitaxel after two cycles (CABARESC side-study). The note with it: for CTC response: No (number of patients): 25 mg/m^2; for CTC response: Yes (number of patients): decrease from ≥10 to <5 CTCs/7.5 mL. The class given is in vivo, human. How it is done: Blood was drawn by venipuncture before start of the first and the third cycle of cabazitaxel. Enumeration of CTCs was carried out as described in detail before (Sieuwerts et al., 2009. Breast Cancer Res Treat 118:455-68; Sieuwerts et al., 2011. Clin Cancer Res 17:3600-18). Briefly, CTCs were enumerated from 7.5 mL of blood drawn into a CellSave Preservative tube (Janssen Diagnostics). Blood samples were processed within 96 hours using the Epithelial Cell Kit on the CellSearch System (both Janssen Diagnostics). In this system, epithelial cells are immunomagnetically enriched from whole blood using anti-EpCAM antibodies loaded with ferrofluid nanoparticles. Enriched cells are stained with the nuclear dye 4′,6-diamidino-2-phenylindole (DAPI), anti-cytokeratin 8/18/19 labeled with phycoerythrin (PE), and anti-CD45 labeled with allophycocyanin (APC), followed by scanning using the CellTracks Analyzer (Janssen Diagnostics). All cells ≥4 μm, with round-to-oval morphology, positive for cytokeratin and DAPI, with at least 50% overlap in the DAPI and cytokeratin signal, and negative for CD45 were considered CTCs. All samples were analyzed by two independent, trained reviewers.
From 25 patients a secondary CTC sample was available; in three patients the second draw was missed and one patient died after the second cycle because of a non-disease related event. Of these 25 patients, 15 were AR-V7-positive and 10 were AR-V7-negative. […] The CTC-RRs in both AR-V7-positive and AR-V7-negative patient groups were 20% (Table 4).

The test system of experiment [4] is castration resistant prostate cancer (CRPC) patients. Particulars: in combination with prednisone; first-line chemotherapy; cited from earlier work.
Setting [5] is: patients with AR-V7 transcripts in their CTCs.
The mark [6] stands for this setting: all patients, after 12 weeks of treatment.
Setting [7] is: all patients, at the end of treatment.

As for `CNC(=O)c1ccc(N2C(=S)N(c3ccc(C#N)c(C(F)(F)F)c3)C(=O)C2(C)C)cc1F` [enzalutamide], the values for the patients who responded entry in the experiment on mCRPC patients [1] (setting [5]) and in the experiment with mCRPC patients [1] (patients without AR-V7) were “none” and 53%, respectively.

In the case of `CO[C@H]1C(=O)[C@]2(C)[C@@H](OC)C[C@H]3OC[C@@]3(OC(C)=O)[C@H]2[C@H](OC(=O)c2ccccc2)[C@]2(O)C[C@H](OC(=O)[C@H](O)[C@@H](NC(=O)OC(C)(C)C)c3ccccc3)C(C)=C1C2(C)C` [cabazitaxel, 4a-acetoxy-2a-benzoyloxy-5,20-epoxy-1-hydroxy-7,10-dimethoxy-9-oxo-1 1-taxen-13a-yl (2R,3S)-3-fert-butoxycarbonylamino-2-hydroxy-3-phenylpropionate], in the experiment on mCRPC patients [2] (all patients (28 available)), the “Median OS” value is reported as 9.5 (95% CI 5.8-13.2) months. Moreover, the “Median OS” value with mCRPC patients [2] (patients with AR-V7 in CTCs at baseline) is 9.5 (95% CI 4.5-14.5) months. Besides, in the experiment on mCRPC patients [2] (patients without AR-V7 in CTCs at baseline), the “Median OS” value is 7.7 (95% CI 3.3-12.1) months. Further, in the experiment on mCRPC patients [3] (AR-V7 in CTCs at baseline: No), the “PSA response after 12 weeks: No (number of patients)” value is reported as 9, the “PSA response after 12 weeks: ≥50% (number of patients)” value stood at 2, the “Best PSA response: No (number of patients)” value is 7 and the “Best PSA response: ≥50% (number of patients)” value came out at 2. In the experiment with mCRPC patients [3] (AR-V7 in CTCs at baseline: No), the “Best PSA response: ≥30% (number of patients)” value was 4 and the “PSA response after 12 weeks: ≥30% (number of patients)” value is on record as 3. In addition, in the experiment with mCRPC patients [3] (AR-V7 in CTCs at baseline: Yes), the “PSA response after 12 weeks: No (number of patients)” value was found to be 12, the “PSA response after 12 weeks: ≥50% (number of patients)” value worked out at 1, the “Best PSA response: No (number of patients)” value is 12 and the “Best PSA response: ≥50% (number of patients)” value is recorded as 1. Further, in the experiment on mCRPC patients [3] (AR-V7 in CTCs at baseline: Yes), the “Best PSA response: ≥30% (number of patients)” value is 3 and the “PSA response after 12 weeks: ≥30% (number of patients)” value came to 2. Besides, in the experiment on mCRPC patients [3] (setting [6]), the “≥30% PSA response (share of patients)” value is 17% and the “≥50% PSA response (share of patients)” value came out at 10%. For the same molecule, in the experiment with mCRPC patients [3] (setting [7]), the “best PSA response ≥30% (share of patients)” value came out at 24% and the “best PSA response ≥50% (share of patients)” value is 10%. Besides, the CTC-RR with CTCs of mCRPC patients (AR-V7-negative patient group) was 20%. The CTC-RR in the experiment on CTCs of mCRPC patients (AR-V7-positive patient group) was 20%. Besides, in the experiment on CTCs of mCRPC patients (AR-V7 in CTCs at baseline: No), the “CTC response: No (number of patients)” value amounted to 8 and the “CTC response: Yes (number of patients)” value is listed as 2. Further, in the experiment with CTCs of mCRPC patients (AR-V7 in CTCs at baseline: Yes), the “CTC response: No (number of patients)” value is 12 and the “CTC response: Yes (number of patients)” value stood at 3. The “CTC response to cabazitaxel (share of patients)” value in the experiment with CTCs of mCRPC patients (all 25 patients with a second CTC sample) is 20%.

In the case of `CC(=O)O[C@@]12CO[C@@H]1C[C@H](O)[C@@]1(C)C(=O)[C@H](O)C3=C(C)[C@@H](OC(=O)[C@H](O)[C@@H](NC(=O)OC(C)(C)C)c4ccccc4)C[C@@](O)([C@@H](OC(=O)c4ccccc4)[C@H]21)C3(C)C` [docetaxel], the survival benefit in experiment [4] is given as 2.4 months.

For `CC(=O)O[C@H]1CC[C@@]2(C)C(=CC[C@@H]3[C@@H]2CC[C@]2(C)C(c4cccnc4)=CC[C@@H]32)C1` [abiraterone acetate], the patients who responded result was “none” with mCRPC patients [1] (setting [5]) and 68% with mCRPC patients [1] (patients without AR-V7).
